In article PMC6983213, “Combining Chalcones with Donepezil to Inhibit Both Cholinesterases and Aβ Fibril Assembly” (Molecules, 2019):
Where “and” joins values, the source holds several entries; their conditions need not be identical. Equal entries are not always repeated. Where two headings read alike, the source gives them in different places.

Legend:
[1] = target: EeAChE (AChE from Electrophorus electricus) (Electrophorus electricus, UniProt O42275); assay: biochemical; settings: for IC50: Ellman's method, pH 8.0, 25 °C, triplicate, ± SDEV, read-out: Inhibition (IC50) of EeAChE; for selectivity index (SI): based on IC50 values against EeAChE and EfBChE
Description: (§1) The ChE inhibition assays were performed as previously described. The 1,3- and 1,4-chalcone-donepezil hybrids (0.1 nM to 100 μM) were dissolved in sodium phosphate buffer ((100 μL), 0.1 M, pH 8.0). […] All assays were performed in triplicate. The data was plotted as a sigmoidal curve and IC50 values were calculated using SigmaPlot 14.0 (Systat Software, San Jose, CA, USA).

[2] = target: EfBChE (BChE from Equus ferus) (Equus caballus, UniProt P81908); assay: biochemical; type: biochemical; settings: Ellman's method, pH 8.0, 25 °C, triplicate, ± SDEV; read-out: Inhibition (IC50) of EfBChE
Description: as §1

[3] = target: T1, N-biotinyl-Aβ(1–42) (bioAβ42) oligomer assembly (Homo sapiens, UniProt P05067); assay: biochemical; settings: for bioAβ42 oligomer assembly inhibition (in words): 1.56 to 50 μM, alone or in 1:1 / 1:1:1 mixtures; for EC50: concentration range 50 to 1.56 μM, duplicate, n = 3 independent experiments, ± SDEV
T1 construct: N-biotinyl Aβ(1–42) (bioAβ42) was purchased from Anaspec; purchased Anaspec (Fremont, CA, USA) AS-23523-05
Description: We first examined the effect of the synthesized 1,3- and 1,4-chalcone-donepezil hybrids 15a–15f and 16a–16f on the assembly of N-biotinyl-Aβ(1–42) (bioAβ42) monomers into oligomers. We quantified the assembly of bioAβ42 into soluble oligomers by using an ELISA assay in which the soluble oligomers were captured on NeutrAvidin^TM-coated ELISA plates and detected with streptavidin-horseradish peroxidase and colorimetric readout (Figure 3).
The plates were then stored in their blocked form at 4 °C prior to use for the oligomer assembly and dissociation assays.
The assembly of bioAβ42 into soluble oligomers was quantified with an ELISA assay in which the soluble oligomers were captured with the NeutrAvidin^TM coating the ELISA plates. The bound oligomers were detected with streptavidin-horseradish peroxidase (SA-HRP). […] Below, please find the details of the three steps (Steps 1–3) used for the oligomer assembly assay.
Step 1: Preparation of monomeric bioAβ42. For a low background, it was essential to rigorously pretreat the bioAβ42 peptide to convert (disaggregate) the multimeric species that form upon storage in the solid state, or even frozen in 1,1,1,3,3,3-hexafluoroisopropanol (HFIP) to monomers. The required amount of stock bioAβ42 peptide (0.5 mg dissolved at 1 mg/mL in HFIP) was pipetted into a polypropylene microfuge tube, dried to a thin film under a gentle air or N2 stream, and then disaggregated for 10 min at rt in neat trifluoroacetic acid (TFA). After removal of the TFA by drying with an air or N2 stream, DMSO was added to produce a 2.3 μg/mL (50×) stock solution.
Step 2: Assembly of bioAβ42 oligomers. 2 μL of disaggregated monomeric 50× bioAβ42 peptide in DMSO (prepared in Step 1) was pipetted into the bottom of each well of a polypropylene 96-well plate. […] The 96-well plate was sealed and incubated at rt for 30 min without shaking. The bioAβ42 oligomer assembly was stopped by adding 50 μL of 0.3% Tween 20 v/v in distilled H2O.
Step 3: Measurement of bioAβ42 oligomers. […] The 96-well plate was then sealed and incubated for 2 h while shaking at 150 rpm at rt. […] The plate was sealed and incubated for 1 h while shaking at 150 rpm at rt. The plate was washed as previously described, and 100 μL/well of HRP substrate (i.e., 1 mM:0.07 mM/tetramethylbenzidine:H2O2) in 0.2 M citrate buffer, pH 4.0 was added. The plate was incubated at rt for 5 to 10 min and the reaction was stopped by the addition of 100 μL/well of 1% v/v H2SO4. The absorbance of each well was read at 450 nm with a BioTek HT Synergy plate reader.
The effects of various chalcones, donepezil, donepezil analogue, and 1,3-chalcone-donepezil hybrids were tested for their ability to inhibit the bioAβ42 oligomer assembly and dissociation either alone or in combination with each other. The experiments were performed as described in the biotinyl-Aβ(1–42) (bioAβ42) oligomer assembly and dissociation assays section.

[4] = test system: ADPBC (Alzheimer's disease PIB binding complex); assay: 3H-PIB binding competition/titration, ADPBC; parameters: species or system Human; settings: compounds at 10 μM (titration 10 to 0.03 μM); 1.2 nM 3H-PIB
Description: Human AD brain frontal cortical tissue (from the Sanders-Brown Center on Aging Alzheimer’s Disease Center Brain Bank at the University of Kentucky) was processed as follows.
(§2) The plates were sealed and incubated for 3 h at 22 °C, without shaking, and transferred to a 96-well Millipore Multiscreen HTS Hi Flow FB (GF/B) filter plate, and filtered with a multi-well plate vacuum manifold (Millipore Corporation, Bedford, MA, USA). […] Specific binding of ^3H-PIB was determined by subtracting the non-specific binding determined in the presence of 1 μM BTA-1.
(§3) The titration of compounds with ^3H-PIB bound to Aβ(1–40) and Aβ(1–42) fibrils and AD brain extract (ADPBC) were performed to further determine the competition of our compounds for the ^3H-PIB binding site of the AD brain. The experiments were performed as described in the ^3H-PIB binding assays of Section 3.4.3 with the use of a concentration range of 10 to 0.03 μM for the compounds tested.

[5] = target: T2, F40 = Aβ(1–40) fibrils (Homo sapiens, UniProt P05067); assay: 3H-PIB binding competition/titration, Aβ(1–40) fibrils; settings: compounds at 10 μM (titration 10 to 0.03 μM); 1.2 nM 3H-PIB
T2 construct: lyophilized NH4OH-treated Aβ(1–40) (cat # A-1157-02); purchased rPeptide (Watkinsville, GA, USA) A-1157-02
Description: (§4) Prior to being transferred to screw-top polypropylene vials and being stored at −75 °C, these 1 mg/mL fibril suspensions were further diluted with an equal volume of the buffer solution.
as §2, §3

[6] = target: T3, F42 = Aβ(1–42) fibrils (Homo sapiens, UniProt P05067); assay: 3H-PIB binding competition/titration, Aβ(1–42) fibrils; settings: compounds at 10 μM (titration 10 to 0.03 μM); 1.2 nM 3H-PIB
T3 construct: Aβ(1–42) (cat # A-1167-02) purchased from rPeptide; purchased rPeptide (Watkinsville, GA, USA) A-1167-02
Description: as §4, §2, §3

[7] = read-out: EC50 against bioAβ42 oligomer assembly

EeAChE (AChE from Electrophorus electricus), sequence (O42275 24-633): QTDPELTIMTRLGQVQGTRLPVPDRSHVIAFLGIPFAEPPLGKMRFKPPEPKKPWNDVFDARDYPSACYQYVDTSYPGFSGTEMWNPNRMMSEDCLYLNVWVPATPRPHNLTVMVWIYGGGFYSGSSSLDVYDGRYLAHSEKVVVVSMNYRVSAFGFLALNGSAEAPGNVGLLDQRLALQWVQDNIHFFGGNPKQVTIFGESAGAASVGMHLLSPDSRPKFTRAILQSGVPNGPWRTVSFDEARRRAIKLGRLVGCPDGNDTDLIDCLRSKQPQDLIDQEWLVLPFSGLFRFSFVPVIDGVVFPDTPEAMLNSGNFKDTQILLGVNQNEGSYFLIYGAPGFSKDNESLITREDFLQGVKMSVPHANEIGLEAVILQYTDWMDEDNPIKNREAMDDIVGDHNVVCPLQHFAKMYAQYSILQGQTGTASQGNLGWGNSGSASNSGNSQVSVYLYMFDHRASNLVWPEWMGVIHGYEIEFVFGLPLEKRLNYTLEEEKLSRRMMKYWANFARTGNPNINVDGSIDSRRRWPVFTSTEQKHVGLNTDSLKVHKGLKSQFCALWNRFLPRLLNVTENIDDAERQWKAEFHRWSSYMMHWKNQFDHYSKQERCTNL
EfBChE (BChE from Equus ferus), sequence (P81908 whole entry): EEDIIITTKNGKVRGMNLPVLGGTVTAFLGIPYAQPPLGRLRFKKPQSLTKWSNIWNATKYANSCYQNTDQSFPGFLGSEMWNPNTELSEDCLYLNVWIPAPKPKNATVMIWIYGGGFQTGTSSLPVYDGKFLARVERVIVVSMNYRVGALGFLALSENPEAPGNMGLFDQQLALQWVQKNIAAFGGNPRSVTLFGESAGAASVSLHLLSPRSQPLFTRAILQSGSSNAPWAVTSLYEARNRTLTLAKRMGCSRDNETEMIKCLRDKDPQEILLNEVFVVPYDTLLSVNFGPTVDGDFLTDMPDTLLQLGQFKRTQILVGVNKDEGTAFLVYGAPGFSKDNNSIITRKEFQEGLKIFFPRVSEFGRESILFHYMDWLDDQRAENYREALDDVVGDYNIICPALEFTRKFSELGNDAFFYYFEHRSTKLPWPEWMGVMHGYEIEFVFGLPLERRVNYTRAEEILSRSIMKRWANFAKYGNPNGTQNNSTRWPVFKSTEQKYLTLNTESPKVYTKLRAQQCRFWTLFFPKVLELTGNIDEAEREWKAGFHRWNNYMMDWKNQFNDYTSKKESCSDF
T1 sequence (P05067 672-713): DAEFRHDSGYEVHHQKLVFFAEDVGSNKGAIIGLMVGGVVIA
T3 sequence (P05067 672-713): as above
T2 sequence (P05067 672-711): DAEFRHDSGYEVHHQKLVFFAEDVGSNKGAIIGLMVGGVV

SMILES | IC50 [1] [nM] | selectivity index (SI) [1] | IC50 [2] [nM] | bioAβ42 oligomer assembly inhibition (in words) [3] | EC50 [3, 7] | displacement of 3H-PIB from ADPBC (in words) [4] | displacement of 3H-PIB from F40 (in words) [5] | displacement of 3H-PIB from F42 (in words) [6] | EC50 ([3]; EC50 against bioAβ42 oligomer assembly) [µM]
COc1cc2c(cc1OCCCCCCOc1ccc(C(=O)/C=C/c3ccc(N(C)C)cc3)cc1)C(=O)C(CC1CCN(Cc3ccccc3)CC1)C2 (centres unmarked) [16c, (E)-2-((1-Benzylpiperidin-4-Yl)Methyl)-6-((6-(4-(3-(4-(Dimethylamino)Phenyl)Acryloyl)Phenoxy)Hexyl)Oxy)-5-Methoxy-2,3-Dihydro-1H-Inden-1-One] | ~500 | ≈1.2 | ~600 | better inhibition of bioAβ42 oligomer assembly | 2.6 ± 0.46 µM |  |  |  | 
COc1cc2c(cc1OCCCCCCCCCCCCOc1ccc(C(=O)/C=C/c3ccc(N(C)C)cc3)cc1)C(=O)C(CC1CCN(Cc3ccccc3)CC1)C2 (centres unmarked) [16f, (E)-2-((1-Benzylpiperidin-4-Yl)Methyl)-6-((12-(4-(3-(4-(Dimethylamino)Phenyl)Acryloyl)Phenoxy)Dodecyl)Oxy)-5-Methoxy-2,3-Dihydro-1H-Inden-1-One] | > 100000 |  | > 100000 | did not prevent bioAβ42 oligomerization | 24.1 µM and > 12 µM | ADPBC affinity comparable to that of 16a |  |  | 
COc1cc2c(cc1OCCCCCCOc1cccc(C(=O)/C=C/c3ccc(N(C)C)cc3)c1)C(=O)C(CC1CCN(Cc3ccccc3)CC1)C2 (centres unmarked) [15c, (E)-2-((1-Benzylpiperidin-4-Yl)Methyl)-6-((6-(3-(3-(4-(Dimethylamino)Phenyl)Acryloyl)Phenoxy)Hexyl)Oxy)-5-Methoxy-2,3-Dihydro-1H-Inden-1-One] | 1220 ± 180 | ≈3.3 | ~4000 | better inhibition of bioAβ42 oligomer assembly | 8.67 ± 0.15 µM |  |  |  | 
COc1cc2c(cc1OCCCCCCCCCCOc1cccc(C(=O)/C=C/c3ccc(N(C)C)cc3)c1)C(=O)C(CC1CCN(Cc3ccccc3)CC1)C2 (centres unmarked) [15e, (E)-2-((1-Benzylpiperidin-4-Yl)Methyl)-6-((10-(3-(3-(4-(Dimethylamino)Phenyl)Acryloyl)Phenoxy)Decyl)Oxy)-5-Methoxy-2,3-Dihydro-1H-Inden-1-One] | 1820 ± 450 | ≈5.5 | ~10000 | did not prevent bioAβ42 oligomerization | 31.7 µM and > 12 µM |  |  |  | 
COc1cc2c(cc1OCCOc1ccc(C(=O)/C=C/c3ccc(N(C)C)cc3)cc1)C(=O)C(CC1CCN(Cc3ccccc3)CC1)C2 (centres unmarked) [16a, (E)-2-((1-Benzylpiperidin-4-Yl)Methyl)-6-(2-(4-(3-(4-(Dimethylamino)Phenyl)Acryloyl)Phenoxy)Ethoxy)-5-Methoxy-2,3-Dihydro-1H-Inden-1-One] | 70 ± 10 | ≈1.4 | ~100 | better inhibition of bioAβ42 oligomer assembly |  |  | better affinity for F40 and F42 than 16b, 16c, 16d, 16e, and 16f | better affinity for F40 and F42 than 16b, 16c, 16d, 16e, and 16f | 9.37 ± 2.1
COc1cc2c(cc1OCCCCOc1ccc(C(=O)/C=C/c3ccc(N(C)C)cc3)cc1)C(=O)C(CC1CCN(Cc3ccccc3)CC1)C2 (centres unmarked) [16b, (E)-2-((1-Benzylpiperidin-4-Yl)Methyl)-6-(4-(4-(3-(4-(Dimethylamino)Phenyl)Acryloyl)Phenoxy)Butoxy)-5-Methoxy-2,3-Dihydro-1H-Inden-1-One] | 140 ± 20 | ≈3.6 | ~500 | better inhibition of bioAβ42 oligomer assembly | 2 ± 0.2 µM |  |  |  | 
COc1cc2c(cc1OCCCCCCCCOc1ccc(C(=O)/C=C/c3ccc(N(C)C)cc3)cc1)C(=O)C(CC1CCN(Cc3ccccc3)CC1)C2 (centres unmarked) [16d, (E)-2-((1-Benzylpiperidin-4-Yl)Methyl)-6-((8-(4-(3-(4-(Dimethylamino)Phenyl)Acryloyl)Phenoxy)Octyl)Oxy)-5-Methoxy-2,3-Dihydro-1H-Inden-1-One] | 520 ± 60 | ≈1.9 | ~1000 | better inhibition of bioAβ42 oligomer assembly | 4.13 ± 0.15 µM |  |  |  | 
CN(C)c1ccc(/C=C/C(=O)c2ccc(O)cc2)cc1 [compound 6, (E)-3-(4-(Dimethylamino)Phenyl)-1-(4-Hydroxyphenyl)Prop-2-En-1-One] |  |  |  |  | > 50 µM |  |  |  | 
COc1cc2c(cc1OCCCCCCCCCCCCOc1cccc(C(=O)/C=C/c3ccc(N(C)C)cc3)c1)C(=O)C(CC1CCN(Cc3ccccc3)CC1)C2 (centres unmarked) [15f, (E)-2-((1-Benzylpiperidin-4-Yl)Methyl)-6-((12-(3-(3-(4-(Dimethylamino)Phenyl)Acryloyl)Phenoxy)Dodecyl)Oxy)-5-Methoxy-2,3-Dihydro-1H-Inden-1-One] | 1670 ± 800 | >60 | > 100000 | did not prevent bioAβ42 oligomerization | 45.3 µM and > 12 µM |  |  |  | 
COc1cc2c(cc1OCCCCCCCCCCOc1ccc(C(=O)/C=C/c3ccc(N(C)C)cc3)cc1)C(=O)C(CC1CCN(Cc3ccccc3)CC1)C2 (centres unmarked) [16e, (E)-2-((1-Benzylpiperidin-4-Yl)Methyl)-6-((10-(4-(3-(4-(Dimethylamino)Phenyl)Acryloyl)Phenoxy)Decyl)Oxy)-5-Methoxy-2,3-Dihydro-1H-Inden-1-One] | 1380 ± 180 |  | ~5000 | did not prevent bioAβ42 oligomerization | 9.73 ± 0.55 µM | ADPBC affinity comparable to that of 16a |  |  | 
COc1cc2c(cc1OCCCCCCCCOc1cccc(C(=O)/C=C/c3ccc(N(C)C)cc3)c1)C(=O)C(CC1CCN(Cc3ccccc3)CC1)C2 (centres unmarked) [15d, (E)-2-((1-Benzylpiperidin-4-Yl)Methyl)-6-((8-(3-(3-(4-(Dimethylamino)Phenyl)Acryloyl)Phenoxy)Octyl)Oxy)-5-Methoxy-2,3-Dihydro-1H-Inden-1-One] | 1220 ± 130 | ≈1.6 | ~2000 | better inhibition of bioAβ42 oligomer assembly | 9.67 ± 1.15 µM |  |  |  | 
